# Values of other authors in US20250221905A1, “HAIR CARE COMPOSITION” (Conopco, Inc., d/b/a UNILEVER, priority 2022, published 2025).
# Key:
# 5α-reductase = details: background statement
# [1] = supplier Croda
Compound,sebum excess action modeled by 5α-reductase evaluation (5α-reductase),HLB value [1]
"CCCCCCCC(=O)NCC(=O)O [Capryloyl glycine, N-(1-oxooctyl) glycine]",reduce sebum excess action,–
Oleth-20 [Brij O20],–,15.5
Steareth-2 [Brij S2],–,4.9
Polysorbate 85 [Tween 85],–,11
